Several values for one entry are separate records, joined by “and”; a condition that tells them apart may be missing. Equal entries are not always repeated. Toxic doses and inconclusive results are not listed.
Tested on: P388 leukemia ip, CD2F1 mice, survival T/C
Assay: NCI In Vivo Anticancer Drug Screen. Data for tumor model P388 Leukemia (intraperitoneal) in CD2F1 (CDF1) mice
Settings: endpoint: median survival time, higher = longer survival
In short: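 Mice carrying the transplanted tumor received test compound or vehicle. Survival was recorded in each group, and the value is the treated-group measurement divided by that of the vehicle-treated control group.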

[1] = dose: 60.0 mg/kg/injection, schedule: Q01DX005 (ip), vehicle: saline with Tween-80
[2] = dose: 120.0 mg/kg/injection, schedule: Q01DX005 (ip), vehicle: saline with Tween-80
[3] = dose: 240.0 mg/kg/injection, schedule: Q01DX005 (ip), vehicle: saline with Tween-80
[4] = dose: 12.5 mg/kg/injection, schedule: Q01DX009 (ip), vehicle: saline with Tween-80
[5] = dose: 50.0 mg/kg/injection, schedule: Q01DX009 (ip), vehicle: saline with Tween-80
[6] = dose: 200.0 mg/kg/injection, schedule: Q01DX009 (ip), vehicle: Klucel (hydroxypropylcellulose) (HPC)
[7] = dose: 50.0 mg/kg/injection, schedule: Q01DX005 (ip), vehicle: saline with Tween-80
[8] = dose: 100.0 mg/kg/injection, schedule: Q01DX005 (ip), vehicle: saline with Tween-80
[9] = dose: 200.0 mg/kg/injection, schedule: Q01DX005 (ip), vehicle: saline with Tween-80

## CCN1C(=NCCO)NS(=O)(=O)c2ccccc21
[1]
  T/C: 95 % of control
[2]
  T/C: 106 % of control
[3]
  T/C: 99 % of control

## CCOc1ccccc1N=Cc1c2ccccc2cc2ccccc12
[4]
  T/C: 100 % of control
dose: 25.0 mg/kg/injection, schedule: Q01DX009 (ip), vehicle: saline with Tween-80
  T/C: 95 % of control
[5]
  T/C: 98 % of control and 86 % of control
dose: 100.0 mg/kg/injection, schedule: Q01DX009 (ip), vehicle: saline with Tween-80
  T/C: 89 % of control

## c1c2noc1CCCCCCCCC2
dose: 50.0 mg/kg/injection, schedule: Q01DX005 (ip), vehicle: Klucel (hydroxypropylcellulose) (HPC)
  T/C: 104 % of control
dose: 100.0 mg/kg/injection, schedule: Q01DX005 (ip), vehicle: Klucel (hydroxypropylcellulose) (HPC)
  T/C: 110 % of control
dose: 200.0 mg/kg/injection, schedule: Q01DX005 (ip), vehicle: Klucel (hydroxypropylcellulose) (HPC)
  T/C: 118 % of control

## O=C1N(Cl)C(=O)C(c2ccc(Cl)cc2)(c2ccc(Cl)cc2)N1Cl
[4]
  T/C: 118 % of control
[5]
  T/C: 150 % of control

## CC(C)n1c2c([n+](C)c1/C=C/c1ccccc1)C(=O)c1ccccc1C2=O
dose: 0.44 mg/kg/injection, schedule: Q01DX009 (ip), vehicle: saline
  T/C: 109 % of control
dose: 0.66 mg/kg/injection, schedule: Q01DX009 (ip), vehicle: saline
  T/C: 116 % of control
dose: 1.0 mg/kg/injection, schedule: Q01DX009 (ip), vehicle: saline
  T/C: 119 % of control
dose: 1.5 mg/kg/injection, schedule: Q01DX009 (ip), vehicle: saline
  T/C: 112 % of control

## C#CC(CC)OC(=O)c1ccc([N+](=O)[O-])cc1 (stereo not drawn)
dose: 50.0 mg/kg/injection, schedule: Q01DX009 (ip), vehicle: Klucel (hydroxypropylcellulose) (HPC)
  T/C: 103 % of control
dose: 100.0 mg/kg/injection, schedule: Q01DX009 (ip), vehicle: Klucel (hydroxypropylcellulose) (HPC)
  T/C: 103 % of control
[6]
  T/C: 91 % of control

## Cc1cn(C2CC(O)C(CI)O2)c(=O)[nH]c1=O (stereo not drawn)
[7]
  T/C: 98 % of control
[8]
  T/C: 104 % of control
[9]
  T/C: 98 % of control

## C=CCC(CCCCCCCCCCCCC)C(=O)O (stereo not drawn)
dose: 100.0 mg/kg/injection, schedule: Q01DX001 (ip), vehicle: saline with Tween-80
  T/C: 104 % of control
dose: 200.0 mg/kg/injection, schedule: Q01DX001 (ip), vehicle: saline with Tween-80
  T/C: 95 % of control
dose: 400.0 mg/kg/injection, schedule: Q01DX001 (ip), vehicle: saline with Tween-80
  T/C: 91 % of control

## Clc1ccc2ccc3cccnc3c2n1
dose: 7.5 mg/kg/injection, schedule: Q01DX005 (ip), vehicle: saline
  T/C: 102 % of control
dose: 15.0 mg/kg/injection, schedule: Q01DX005 (ip), vehicle: saline
  T/C: 97 % of control
dose: 30.0 mg/kg/injection, schedule: Q01DX005 (ip), vehicle: saline
  T/C: 93 % of control
dose: 60.0 mg/kg/injection, schedule: Q01DX005 (ip), vehicle: saline
  T/C: 102 % of control
dose: 120.0 mg/kg/injection, schedule: Q01DX005 (ip), vehicle: saline
  T/C: 105 % of control

## Cc1oc2ccccc2c(=O)c1Cn1cnc2ccc([N+](=O)[O-])cc21
[1]
  T/C: 102 % of control
[2]
  T/C: 93 % of control
[3]
  T/C: 91 % of control

## CC(N)C(=O)NC(CC(=O)O)C(=O)O (stereo not drawn)
dose: 12.5 mg/kg/injection, schedule: Q01DX009 (ip), vehicle: saline
  T/C: 95 % of control
dose: 25.0 mg/kg/injection, schedule: Q01DX009 (ip), vehicle: saline
  T/C: 86 % of control
dose: 50.0 mg/kg/injection, schedule: Q01DX009 (ip), vehicle: saline
  T/C: 90 % of control
dose: 100.0 mg/kg/injection, schedule: Q01DX009 (ip), vehicle: saline
  T/C: 94 % of control
dose: 200.0 mg/kg/injection, schedule: Q01DX009 (ip), vehicle: saline
  T/C: 92 % of control

## O/N=C/c1cc(I)cc(I)c1O
[7]
  T/C: 90 % of control
[8]
  T/C: 99 % of control
[9]
  T/C: 99 % of control

## Cc1cc(=O)n2[nH]cnc2n1
dose: 12.5 mg/kg/injection, schedule: Q01DX009 (ip), vehicle: Klucel (hydroxypropylcellulose) (HPC)
  T/C: 97 % of control
dose: 25.0 mg/kg/injection, schedule: Q01DX009 (ip), vehicle: Klucel (hydroxypropylcellulose) (HPC)
  T/C: 109 % of control and 110 % of control and 98 % of control
[6]
  T/C: 99 % of control and 107 % of control and 109 % of control
dose: 400.0 mg/kg/injection, schedule: Q01DX009 (ip), vehicle: Klucel (hydroxypropylcellulose) (HPC)
  T/C: 104 % of control and 119 % of control

## Cc1ccc2c(ccc(/C=C\c3cc(C)c4cccnc4c3O)[n+]2C)c1
dose: 0.78 mg/kg/injection, schedule: Q01DX009 (ip), vehicle: saline with Tween-80
  T/C: 124 % of control
dose: 1.56 mg/kg/injection, schedule: Q01DX009 (ip), vehicle: saline with Tween-80
  T/C: 122 % of control
dose: 3.13 mg/kg/injection, schedule: Q01DX009 (ip), vehicle: saline with Tween-80
  T/C: 121 % of control

From PubChem BioAssay AID330 (DTP/NCI, 2004)
